{
  "source": "patent US20230255906A1",
  "about": "“Targeting Serpin B9 in Cancer” (The Brigham and Women`s Hospital, Inc., priority 2020, published 2023)",
  "key": {"[1]": {"system": "B16 melanoma cells", "assay": "Caspase-3 activity assay (EnzChek Caspase-3 Assay Kit), caspase-3 induction in tumor cells", "assay_type": "cell-based, mouse", "conditions": "200 μM", "how_it_was_run": "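B16 melanoma cells exposed to compounds for 24 h, lysed on ice 30 min, and lysate incubated with Z-DEVD-R110 substrate about 30 min at room temperature. Fluorescence read at ~496/520 nm against untreated-cell and no-enzyme controls; caspase-3 induction serves as surrogate for GrB activity from Sb9 inhibition.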"}, "[2]": {"target": "T1, MBP-Sb9 (Homo sapiens, UniProt P50453)", "T1 construct": "made in house", "T1 sequence (P50453 whole entry)": "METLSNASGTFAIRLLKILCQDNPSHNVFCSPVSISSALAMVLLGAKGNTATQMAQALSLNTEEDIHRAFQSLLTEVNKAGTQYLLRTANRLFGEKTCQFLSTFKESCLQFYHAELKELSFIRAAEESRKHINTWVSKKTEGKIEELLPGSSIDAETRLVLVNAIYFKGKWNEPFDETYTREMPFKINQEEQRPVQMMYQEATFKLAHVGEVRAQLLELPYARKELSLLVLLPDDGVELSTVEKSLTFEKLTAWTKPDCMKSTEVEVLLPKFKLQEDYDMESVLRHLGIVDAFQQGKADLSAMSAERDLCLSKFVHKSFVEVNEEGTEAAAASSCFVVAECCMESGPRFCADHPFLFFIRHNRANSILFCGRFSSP", "assay": "Surface plasmon resonance (SPR) binding", "conditions": "25° C., 1:1 Langmuir model", "description": "Surface plasmon resonance (SPR) measures change in refractive index on a biosensor surface, as analytic mass accumulates via binding to an attached ligand. This allows derivation of affinity (KD) from measured kinetic rates of association (ka) and dissociation (kd). All assays were run at 25° C. on a BiOptix 404pi. An NTA biosensor chip was used in this study to pre-concentrate 3 μM MBP-Sb9 via an N-terminal His-tag. MBP-Sb9 was covalently immobilized with EDC/NHS in 20 mM HEPES pH 8.0, 150 mM NaCl, 0.05% Tween-20, 5 mM β-ME to 10,000 to 15,000 RUs. MBP was similarly immobilized on a separate channel as a negative control. Compounds were injected as 3-fold serial dilutions in duplicate starting at 200 μM. Injections were done at 50 μL/min for 60 seconds, followed by a 120 second dissociation in 20 mM HEPES, pH 8.0, 150 mM NaCl, 0.05% Tween-20, 5 mM j-ME, 1% DMSO. A series of five DMSO standards between 0.5% and 1.5% were included with each run to correct for bulk refractive index. Sensorgrams were analyzed using Scrubber 2 software with a double reference and fit to a 1:1 Langmuir model to determine the interaction parameters KD, ka, and kd."}, "[3]": {"system": "4T1 breast tumors", "assay": "4T1 breast tumor model in BALB/c mice", "assay_type": "in vivo, mouse", "description": "Mice were anesthetized with isoflurane, and tumor cell lines (B16, A375, and 4T1) were gently injected subcutaneously in the flanks or mammary glands of mice. One hundred thousand cells (1×10^5 cells) were injected per mouse for most of the experiments. However, twenty-five thousand cells (25×10^3 cells) were injected per mouse for the experiments using the compound of Formula (III). Upon 4 hrs post-implantation, 300 μg of the compound of Formula (III) was administered twice a day intraperitoneally for 14 days. Tumor growth was monitored three times per week by digital caliper (Fisherbrand™ Traceable™ Digital Calipers).\nSb9 is highly expressed in human primary breast tumor cells (FIG. 6D) and in the stromal cells within the TME (FIGS. 6D-6E). Whether the compound of Formula (III) could be used to treat mice implanted with 4T1 breast tumor cells was therefore determined. […] Treatment with the compound of Formula (III) increased the median survival time (MST) of mice bearing 4T1 breast tumors and receiving treatment with the compound of Formula (III) as compared to mice bearing 4T1 breast tumors and not receiving treatment (MST=28 days vs MST=22 days, respectively) (FIG. 6G).\nFor mouse Breast Cancer model, 1×10^5 4T1 cells were subcutaneously implanted into the fourth mammary pad of BABL/c mice, and mice were separated randomly into three groups: Control, compound of Formula (I), and compound of Formula (II). In the compound of Formula (I) group, mice were treated with the compound of Formula (I) for 14 days consecutively ([…], i.p, twice a day). In the compound of Formula (II) group, mice were administrated the compound of Formula (II) 14 days consecutively (300 μg/mouse, i.p, twice a day). Tumor sizes were measured every 3 days from day 5 post-tumor implantation and calculated with formula length×width^2/2."}, "[4]": {"system": "RENCA mouse kidney tumors", "assay": "RENCA kidney tumor model in BALB/c mice", "assay_type": "in vivo", "conditions": "300 μg i.p. bid for 21 days", "text": "FIGS. 6N-6O. […] Data are expressed as means±SEM. *P<0.05, **P<0.01 (Student's t-test). Mean survival time (MST) is increased in mice treated with the compound of Formula (III) as compared to Control group (FIG. 6O).\nFurthermore, similar antitumor effects and increased MST using the compound of Formula (III) in two other in vivo tumor models were observed: Renca renal cell carcinoma and LLC1 lung cancer (FIGS. 6M-6Q). Thus, inhibition of Sb9 by the compound of Formula (III) has potent anti-tumor effects in a broad spectrum of tumors, including melanomas as well as breast, lung, and kidney tumors."}, "[5]": {"system": "GrB", "assay": "Grantoxilux assay of GrB activity in B16 cells", "assay_type": "cell-based, mouse", "conditions": "200 μM, 24 h"}, "[6]": {"system": "MSC-WT cells", "assay": "ECM fiber production by mesenchymal stem cells", "assay_type": "cell-based, mouse", "description": "Isolation and harvest of murine MSCs from either C57BL/6-WT mice or Sb9 KO mice were performed according to the protocol as described previously (Zhu et al., 2010).\nTo investigate the effect of the compound of Formula (III) on the tumor stroma, MSC-WT cells were treated with the compound of Formula (III) for 48 hrs."}},
  "data": [
    {"smiles": "O=C(O)c1ccc2ncoc2c1", "note": "[Formula (III), 1,3-benzoxazole-6-carboxylic acid]", "values": [
      {"measurement": "increase in caspase-3 activity compared to 3,4-dihydroxybenzoic acid", "setting": "[1]; 24 h", "value": "~4", "unit": "fold"},
      {"measurement": "GrB-mediated apoptosis (caspase-3 activity)", "setting": "[1]; GrB inhibitor (368050) 10 μM", "value": "induced GrB-mediated apoptosis"},
      {"measurement": "Kd", "setting": "[2]", "value": 273, "unit": "µM"},
      {"measurement": "levels of stromal cells and CAFs in breast tumors", "setting": "[3]; 17 days post-implantation", "value": "reduced levels"},
      {"measurement": "reduction of size of 4T1-derived tumors vs control", "setting": "[3]; BALB/c mice, 300 μg i.p. bid for 14 days", "value": 2.5, "unit": "fold"},
      {"measurement": "median survival time (MST)", "setting": "[3]; mice bearing 4T1 breast tumors, 300 μg i.p. bid for 14 days", "value": 28, "unit": "days"},
      {"measurement": "Mean survival time (MST) vs Control", "setting": "[4]", "value": "increased"},
      {"measurement": "tumor growth vs control", "setting": "[4]; male BALB/c mice", "value": "significantly slower growth"},
      {"measurement": "activity of GrB", "setting": "[5]", "value": "increased activity of GrB"},
      {"measurement": "production of fibronectin and collagen I by MSC-WT cells", "setting": "[6]; 48 hrs treatment", "value": "reduced the production of fibronectin and collagen I"},
      {"measurement": "expression of fibronectin and collagen I by MSC-WT cells co-cultured with B16 cells", "setting": "[6]; co-culture with B16-GFP cells", "value": "decreased the expression of fibronectin and collagen I"}
    ]}
  ]
}
